One data set deals with Kidney. Description: Release of H2S in mouse kidney homogenate at 10 to 300 uM measured for 10 mins by methylene blue formation assay. The class given is ADME, tissue-based. The following applies: tissue homogenate, dose 10-300 µM.
The nature of data set [1]: (§1) Antihistamine effect in HUVEC cells assessed as inhibition of histamine-induced tissue factor expression pretreated 30 mins before addition of his measured after 2 hrs after addition of TRIzol by spectrophotometry. Format: functional, cell-based. The following applies: Homo sapiens, HUVE.
The test system of the next data set is HUVE. The data set is described as §1. The class given is functional, cell-based. The following applies: Homo sapiens.
The test system of data set [2] is Mus musculus. Description: Antihistamine effect in mouse assessed as Inhibition of histamine-induced increase vascular leakage in skin tissue at 15 mg/kg, ip pretreated 30 mins before Evans blue injection followed by injected with histamine mouse euthanized and skin excised by Miles assay. The class given is functional, organism-based.
Data set [3] has as its system Mus musculus. Description: Antipruritic effect in mouse assessed as reduction in histamine-induced itching duration at 60 to 120 mg/kg ip pretreated 30 mins before histamine and recorded for 10 mins. Format: functional. The following applies: dose 60-120 mg/kg, 0.5 h.
The nature of data set [4]: Toxicity in histamine-induced mouse itching mouse model assessed as reduction in locomotion at 60 to 120 mg/kg ip. The class given is organism-based. Particulars: in vivo, dose 60-120 mg/kg.
The test system of data set [5] is Mus musculus. Description: Antipruritic effect in mouse assessed as reduction in histamine-induced itching duration at 15 mg/kg ip pretreated 30 mins before histamine and recorded for 10 mins. Format: functional, organism-based.
Data set [6] can be described thus: Toxicity in histamine-induced mouse itching mouse model assessed as reduction in locomotion at 15 mg/kg ip. The class given is organism-based. Particulars: in vivo.
In data set [7] the test system is Mus musculus. As to the kind of experiment: Antipruritic effect in mouse assessed as reduction in PAR-2-induced itching duration at 15 mg/kg ip pretreated 30 mins before histamine and recorded for 10 mins. The class given is functional, organism-based.
A short description of data set [8]: Toxicity in mouse assessed as sedative effect by measuring reduction in locomotion at 70 mg/kg ip. The following applies: in vivo. Format: organism-based.
Data set [9] in a line: Plasma concentration in mouse at 1 mg/kg, ip measured after 30 mins by LC-MS/MS analysis. Format: ADME, organism-based.
Data set [10] can be described thus: Drug metabolism in mouse assessed as fold increase in plasma HDZ at 50 mg/kg, ip by LC-MS/MS analysis. The class given is ADME, organism-based. Particulars: in vivo.
The next data set relates to HepG2. As to the kind of experiment: Release of H2S in human HepG2 cells measured for 24 hrs by lead acetate method. The class given is ADME, cell-based. Particulars: hepg2, 24 h, dose 0.5-3 mM.
In data set [11] the test system is Mus musculus. As to the kind of experiment: Antipruritic effect in mouse assessed as reduction in histamine-induced itching duration at 3.5 mg/kg ip pretreated 30 mins before histamine and recorded for 10 mins relative to HDZ. Format: functional, organism-based.
Data set [12] relates to Mus musculus. As to the kind of experiment: Antipruritic effect in mouse assessed as reduction in histamine-induced itching duration at 20 mg/kg ip pretreated 30 mins before histamine and recorded for 10 mins. Format: functional, organism-based.
Data set [13] deals with Mus musculus. As to the kind of experiment: Antihistamine effect in mouse assessed as Inhibition of histamine-induced increase vascular leakage in skin tissue at 50 mg/kg, ip pretreated 30 mins before Evans blue injection followed by injected with histamine mouse euthanized and skin excised by Miles assay. Format: functional, organism-based.
Data set [14] concerns Mus musculus. Description: Antipruritic effect in mouse assessed as reduction in histamine-induced itching duration at 50 mg/kg ip pretreated 30 mins before histamine and recorded for 10 mins relative to CET. The class given is functional, organism-based.
Data set [15] has as its system Mus musculus. As to the kind of experiment: Antipruritic effect in mouse assessed as reduction in PAR-2-induced itching duration at 50 mg/kg ip pretreated 30 mins before histamine and recorded for 10 mins. The class given is functional, organism-based.
Data set [16] in a line: Drug metabolism in mouse assessed as fold increase in plasma CET at 50 mg/kg, ip by LC-MS/MS analysis. The class given is ADME, organism-based. The following applies: in vivo.
The test system of data set [17] is Mus musculus. Description: Antihistamine effect in mouse assessed as Inhibition of histamine-induced increase vascular leakage in skin tissue at 10 mg/kg, ip pretreated 30 mins before Evans blue injection followed by injected with histamine mouse euthanized and skin excised by Miles assay. The class given is functional, organism-based.
In data set [18] the test system is Mus musculus. As to the kind of experiment: Antipruritic effect in mouse assessed as reduction in histamine-induced itching duration at 10 mg/kg ip pretreated 30 mins before histamine and recorded for 10 mins. The class given is functional, organism-based.
In data set [19] the test system is Mus musculus. Description: Antipruritic effect in mouse assessed as reduction in histamine-induced itching duration at 30 mg/kg ip pretreated 30 mins before histamine and recorded for 10 mins. The class given is functional, organism-based.
The subject of data set [20] is Mus musculus. As to the kind of experiment: Antipruritic effect in mouse assessed as reduction in PAR-2-induced itching duration at 10 mg/kg ip pretreated 30 mins before histamine and recorded for 10 mins. Format: functional, organism-based.
The nature of data set [21]: Plasma concentration in mouse at 10 mg/kg, ip measured after 30 mins by LC-MS/MS analysis.
Data set [22] relates to Mus musculus. As to the kind of experiment: Antihistamine effect in mouse assessed as Inhibition of histamine-induced increase vascular leakage in skin tissue at 1 mg/kg, ip pretreated 30 mins before Evans blue injection followed by injected with histamine mouse euthanized and skin excised by Miles assay. Format: functional, organism-based.
The subject of data set [23] is Mus musculus. Description: Antipruritic effect in mouse assessed as reduction in histamine-induced itching duration at 1 mg/kg ip pretreated 30 mins before histamine and recorded for 10 mins. Format: functional, organism-based.
In data set [24] the test system is Mus musculus. As to the kind of experiment: Antipruritic effect in mouse assessed as reduction in histamine-induced itching duration at 5 mg/kg ip pretreated 30 mins before histamine and recorded for 10 mins. Format: functional, organism-based.
The subject of data set [25] is Mus musculus. As to the kind of experiment: Antipruritic effect in mouse assessed as reduction in PAR-2-induced itching duration at 1 mg/kg ip pretreated 30 mins before histamine and recorded for 10 mins. Format: functional, organism-based.
Data set [26] is described as follows: Toxicity in mouse assessed as sedative effect by measuring reduction in locomotion at 50 mg/kg ip. The class given is organism-based. Particulars: in vivo.

SMILES strings stand for the structures. Active and inactive are the calls of the source. No cut-off for these calls is given here.

Consider `CCOCCn1c(C2CCN(CCc3ccc(C(C)(C)C(=O)Oc4ccc(C(N)=S)cc4)cc3)CC2)nc2ccccc21`, for which the Drug metabolism entry in the data set on Kidney is “Dose-Dependent Effect”.
By IC50 is commonly meant the concentration that gives 50% inhibition. On to `NC(=S)c1ccc(OC(=O)CCC(=O)OCCOCCN2CCN(C(c3ccccc3)c3ccc(Cl)cc3)CC2)cc1` (stereo unspecified), for which the Drug metabolism result in the data set on Kidney was “Dose-Dependent Effect”. For the same molecule, in data set [1], the IC50 was found to be 0.599 µM. The inhibition entry in the data set on HUVE is “Dose-Dependent Effect”. In addition, the inhibition result in the data set on Mus musculus [2], in the data set on Mus musculus [5] and in the data set with Mus musculus [7] was “Active” throughout. In the data set with Mus musculus [3], the “inhibition (INH)” value stood at 100%. For the same molecule, the Activity result is on record as “Toxic” in data set [4], “Non-Toxic” in data set [6] and “Non-Toxic” in data set [8]. The concentration at 0.5 h in [9] was determined as 0.0361 µg/mL. Besides, the “fold change (FC)” value in data set [10] is given as 15.
Turning to `C[C@H]1CN(C2CCC(C#N)(c3ccc(F)cc3)CC2)CC[C@@]1(C(=O)Oc1ccc(-c2cc(=S)ss2)cc1)c1ccccc1` (stereo partly specified), the Drug metabolism result in the data set on Kidney and in the data set with HepG2 was “Dose-Dependent Effect” in each case.
With `C[C@H]1CN(C2CCC(C#N)(c3ccc(F)cc3)CC2)CC[C@@]1(C(=O)Oc1ccc(C(N)=S)cc1)c1ccccc1` (stereo partly specified), the Drug metabolism result in the data set on Kidney is “Dose-Dependent Effect”.
In the case of `CCOCCn1c(C2CCN(CCc3ccc(C(C)(C)C(=O)Oc4ccc(-c5cc(=S)ss5)cc4)cc3)CC2)nc2ccccc21`, the Drug metabolism result with Kidney and with HepG2 was “Dose-Dependent Effect” each time.
With `NC(=S)c1ccccc1`, the inhibition entry with Mus musculus [11] is “Active”.
`Oc1ccc(-c2cc(=S)ss2)cc1`: the inhibition entry in the data set on Mus musculus [12] was “Active”.
Turning to `O=C(COCCN1CCN(C(c2ccccc2)c2ccc(Cl)cc2)CC1)OCCCCCCOc1ccc(-c2cc(=S)ss2)cc1` (racemic), the Drug metabolism entry in the data set with Kidney was “Dose-Dependent Effect”.
In the case of `O=C(CCC(=O)Oc1ccc(-c2cc(=S)ss2)cc1)OCCOCCN1CCN(C(c2ccccc2)c2ccc(Cl)cc2)CC1` (racemic), the Drug metabolism entry in the data set on Kidney and with HepG2 was “Dose-Dependent Effect” each time. For the same molecule, in [1], the IC50 is 0.0055 µM. Further, the inhibition result in the data set on HUVE was “Dose-Dependent Effect”.
With `NC(=S)c1ccc(OCCCCCCOC(=O)COCCN2CCN(C(c3ccccc3)c3ccc(Cl)cc3)CC2)cc1` (racemic), the Drug metabolism result in the data set with Kidney is on record as “Dose-Dependent Effect”. Moreover, the IC50 in data set [1] turned out to be 0.0079 µM. Further, the inhibition entry in the data set on HUVE is “Dose-Dependent Effect”.
Consider `O=C(COCCN1CCN(C(c2ccccc2)c2ccc(Cl)cc2)CC1)OCCOc1ccc(-c2cc(=S)ss2)cc1` (racemic), for which the Drug metabolism result with Kidney and in the data set with HepG2 was “Dose-Dependent Effect” each time. For the same molecule, the IC50 in [1] is 0.812 µM. Besides, in the data set with HUVE, the inhibition result was “Dose-Dependent Effect”. The inhibition entry in the data set with Mus musculus [13], in the data set on Mus musculus [14] and in the data set with Mus musculus [15] was “Active” in each case. Also, the “fold change (FC)” value in data set [16] amounted to 3.
Consider `O=C(O)COCCN1CCN(C(c2ccccc2)c2ccc(Cl)cc2)CC1` (stereo unspecified) [CETIRIZINE], for which the IC50 in data set [1] was 0.169 µM. In the data set with HUVE, the inhibition entry was “Dose-Dependent Effect”. Besides, the inhibition result in the data set on Mus musculus [17] and in the data set with Mus musculus [20] was “Active” in each case. For the same molecule, the outcome in the data set with Mus musculus [18] and in the data set on Mus musculus [19] was Active. Further, the Activity result in data set [8] was “Toxic”. Moreover, in data set [21], the concentration at 0.5 h worked out at 8.46 µg/mL.
Turning to `OCCOCCN1CCN(C(c2ccccc2)c2ccc(Cl)cc2)CC1` (stereo unspecified) [HYDROXYZINE], in data set [1], the IC50 is 0.00487 µM. For the same molecule, the inhibition entry in the data set on HUVE is “Dose-Dependent Effect”. Besides, the inhibition result in the data set with Mus musculus [22] and in the data set on Mus musculus [25] was “Active” in each case. Moreover, the outcome in the data set on Mus musculus [23] and with Mus musculus [24] was Active. Also, the Activity entry in data set [26] is on record as “Toxic”.

For the origin of these results see ChEMBL document CHEMBL5346951, “Novel H2S-Releasing Bifunctional Antihistamine Molecules with Improved Antipruritic and Reduced Sedative Actions” (J Med Chem, 2023).
